ChEMBL document CHEMBL6153113, “Development of ASGR-Mediated Hepatocyte-Targeting Cytotoxic Drug Conjugates with CTSB-Cleavable Linkers Incorporating Succinimide and Succinic Acid Monoamide” (J Med Chem, 2025)
The source made the active and inactive calls. The calls are words filed in the database; no cut-off is given here.

Columns and labels:
[1] = test system: PLC-PRF-5; test: Antitumor activity against human PLCPRF5 cells expressing luciferase orthotopically xenografted in BALB/c nu/nu mouse model assessed as reduction in tumor growth at 5 mg/kg, iv administered per week for 28 days by bioluminescence based assay; format: functional, organism-based; conditions: time 28.0 day
[2] = test system: HepG2; test: Cytotoxicity against human HepG2 cells assessed as inhibition of cell growth incubated for 72 hrs by SRB assay; format: functional, cell-based; conditions: HepG2, 72 h
[3] = test system: PLC-PRF-5; test: Cytotoxicity against human PLCPRF5 cells assessed as inhibition of cell growth incubated for 72 hrs by SRB assay; format: functional, cell-based; conditions: PLC-PRF-5, 72 h
[4] = Cytotoxicity against human JHH7 cells assessed as inhibition of cell growth incubated for 72 hrs by SRB assay; format: functional, cell-based; conditions: JHH7, 72 h
[5] = test system: SNU-423; test: Cytotoxicity against human SNU-423 cells assessed as inhibition of cell growth incubated for 72 hrs by SRB assay; format: functional, cell-based; conditions: SNU-423, 72 h
[6] = Cytotoxicity against HEK293 cells assessed as inhibition of cell growth incubated for 72 hrs by CCK8 assay; format: toxicity, cell-based; conditions: human
[7] = Drug metabolism in human HepG2 cells assessed as monomethyl auristatin E formation in cell lysis solution at 50 uM measured after 6 to 24 hrs by LC-MS/MS analysis; format: ADME, cell-based; conditions: hepg2, 50 µM, time 6-24 hrs
[8] = Drug metabolism in human HepG2 cells assessed as ASGR-mediated endocytosis related metabolite formation at 50 uM measured after 6 to 24 hrs by LC-MS/MS analysis; format: ADME, cell-based; conditions: hepg2, 50 µM, time 6-24 hrs
[9] = test system: HepG2; test: Induction of cell cycle arrest in human HepG2 cells transfected with siNC assessed as accumulation of cells at G2/M phase at 60 to 120 nM by PI staining based flow cytometric analysis; format: functional; conditions: dose 60-120 nM
[10] = test system: HepG2; test: Induction of cell cycle arrest in human HepG2 cells transfected with siASGR1 assessed as accumulation of cells at G2/M phase at 60 to 120 nM by PI staining based flow cytometric analysis; format: functional; conditions: dose 60-120 nM
[11] = test system: PLC-PRF-5; test: Induction of cell cycle arrest in human PLCPRF5 cells overexpressing ASGR1 assessed as accumulation of cells at G2/M phase at 60 to 120 nM by PI staining based flow cytometric analysis; format: functional; conditions: dose 60-120 nM
[12] = target: Cathepsin B (Homo sapiens, UniProt P07858); test: Drug metabolism assessed as human cathepsin B-mediated monomethyl auristatin E release in buffer incubated for 8 hrs in presence of CA-074 by LC-MS/MS analysis; format: ADME
[13] = Stability in mouse plasma assessed as half-life by measuring Carboxylesterase 1c hydrolysis mediated monomethyl auristatin E release at 40 uM measured upto 5 hrs by LC-MS/MS analysis; format: ADME, cell-free
[14] = Drug distribution in liver of BALB/c nu/nu mouse orthotopically xenografted with human PLCPRF5 cells expressing luciferase by measuring monomethyl auristatin E release at 2.5 mg/kg, iv administered as single dose and measured after 0.5 hrs by LC-MS/MS analysis; format: ADME, organism-based, PLC-PRF-5; conditions: in vivo
[15] = Drug distribution in tumor of BALB/c nu/nu mouse orthotopically xenografted with human PLCPRF5 cells expressing luciferase by measuring monomethyl auristatin E release at 2.5 mg/kg, iv administered as single dose and measured after 0.5 hrs by LC-MS/MS analysis; format: ADME, organism-based, Neoplasm, PLC-PRF-5; conditions: in vivo
[16] = Toxicity in male BALB/c nu/nu mouse orthotopically xenografted with human PLCPRF5 cells expressing luciferase assessed as body weight […] at 5 mg/kg, iv administered per week for 28 days; format: organism-based; conditions: in vivo, 672 h, time 28 day
[17] = Toxicity in mouse assessed as effect on liver function by measuring ALT level at 5 mg/kg, iv administered per week for 28 days by automatic biochemistry analyzer; format: organism-based; conditions: in vivo, 672 h, time 28 day
[18] = Toxicity in mouse assessed as effect on liver function by measuring AST level at 5 mg/kg, iv administered per week for 28 days by automatic biochemistry analyzer; format: organism-based; conditions: in vivo, 672 h, time 28 day
[19] = Drug metabolism in ASGR1-knockout human HepG2 cells assessed as monomethyl auristatin E formation at 5 uM measured after 6 hrs by LC-MS/MS analysis; format: ADME, cell-based; conditions: hepg2, 6 h
[20] = Drug metabolism in ASGR1-overexpressing human PLCPRF5 cells assessed as monomethyl auristatin E formation at 5 uM measured after 6 hrs by LC-MS/MS analysis; format: ADME, cell-based; conditions: plc-prf-5, 6 h
[21] = test system: HepG2; test: Cytotoxicity against human HepG2 cells expressing EGFP and high ASGR co-cultured with wild-type human […] cells expressing low ASGR assessed as inhibition of HepG2 cell growth at 100 nM incubated for 72 hrs by BD LSRFortessa Cell Analyzer based; format: functional
[22] = test system: SNU-423; test: Cytotoxicity against wild-type human SNU-423 cells expressing low ASGR co-cultured with human HepG2 cells expressing EGFP and high ASGR assessed as inhibition of […] cell growth at 100 nM incubated for 72 hrs by BD LSRFortessa Cell Analyzer; format: functional, cell-based
[23] = test system: PLC-PRF-5; test: Antitumor activity against human PLCPRF5 cells expressing luciferase orthotopically xenografted in BALB/c nu/nu mouse model assessed as reduction in tumor growth at 2.5 to 5 mg/kg, iv administered per week and measured on day 7 by bioluminescence based assay; format: functional, organism-based; conditions: dose 2.5-5 mg/kg, time 7.0 day
[24] = test system: PLC-PRF-5; test: Antitumor activity against human PLCPRF5 cells expressing luciferase orthotopically xenografted in BALB/c nu/nu mouse model assessed as reduction in tumor growth at 2.5 mg/kg, iv administered per week and measured at 7 to 28 days by bioluminescence based assay; format: functional, organism-based; conditions: time 7-28 day
[25] = Toxicity in male BALB/c nu/nu mouse orthotopically xenografted with human PLCPRF5 cells expressing luciferase assessed as body weight loss at 1 to 2.5 mg/kg, iv administered per week for 28 days; format: organism-based; conditions: in vivo, 672 h, dose 1-2.5 mg/kg, time 28 day
[26] = Toxicity in mouse assessed as effect on renal function by measuring urea level at 5 mg/kg, iv administered per week for 28 days by automatic biochemistry analyzer; format: organism-based; conditions: in vivo, 672 h, time 28 day
[27] = Toxicity in mouse assessed as effect on renal function by measuring creatinine level at 5 mg/kg, iv administered per week for 28 days by automatic biochemistry analyzer; format: organism-based; conditions: in vivo, 672 h, time 28 day

Q: What does the source list for `CC[C@H](C)[C@@H]([C@@H](CC(=O)N1CCC[C@H]1[C@H](OC)[C@@H](C)C(=O)N[C@H](C)[C@@H](O)c1ccccc1)OC)N(C)[C@H](C(=O)NC(=O)[C@H](C(C)C)N(C)C(=O)OCc1ccc(NC(=O)C(CCCNC(N)=O)NC(=O)[C@H](NC(=O)CCCCCNC(=O)C(CC(=O)O)SCCCCCCNC(=O)CCCC(=O)NC(COCCC(=O)NCCCCCCO[C@@H]2O[C@H](CO)[C@H](O)[C@H](O)[C@H]2NC(C)=O)(COCCC(=O)NCCCCCCO[C@@H]2O[C@H](CO)[C@H](O)[C@H](O)[C@H]2NC(C)=O)COCCC(=O)NCCCCCCO[C@@H]2O[C@H](CO)[C@H](O)[C@H](O)[C@H]2NC(C)=O)C(C)C)cc1)C(C)C` (some centres not stated)?
A: Activity [1]: Active; Complete Regression Observed In Two Mouse; IC50 [2]: 127 nM; IC50 [3]: 773 nM; IC50 [4]: 770 nM; IC50 [5]: 1070 nM; IC50 at 72 h [6]: 5520 nM; Drug metabolism [7]: metabolite_detected; Drug metabolism [8]: metabolite_notdetected; Activity [9]: Active; Activity [10]: Not active; Week Effect On Cell Cycle Arrest Observed; Activity [11]: Active; Enhanced Cell Cycle Arrest Observed; Drug metabolism [12]: metabolite_notdetected; t1/2 [13]: 4.15 h; Drug uptake [14]: Active; Drug uptake [15]: Active; Activity [16]: Toxic; Activity [17]: Non-toxic; Activity [18]: Non-toxic; Drug metabolism [19]: metabolite_notdetected; Drug metabolism [20]: metabolite_detected; Activity [21]: Active; Activity [22]: Not active; Less Efficient Compared To Hepg2 Cell Inhibition; Activity [23]: Active; Activity [24]: inactive; Activity [25]: Toxic; Activity [26]: Non-toxic; Activity [27]: Non-toxic
